Experimental data from patent US20240158348A1, “HERBICIDAL CYCLIC AMIDES N-SUBSTITUTED WITH A HALOALKYLSULFONYLANILIDE GROUP” (FMC Corporation, priority 2021, published 2024).

What was measured:
[1] = system: barnyardgrass (Echinochloa crusgalli); test: Test D flooded paddy test, barnyardgrass; format: in vivo; design: key: 0 = no effect, 100 = complete control; conditions: 250 g ai/ha, Flood; applied to paddy water at 2-leaf stage; visual rating after 13 days; scale 0 (no effect) to 100 (complete control)
Method in brief: (§1)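 Test compounds applied directly to paddy water after pots were flooded to 3 cm above soil, with plants at 2-leaf stage; depth held throughout. Greenhouse for 13 days, then visual rating versus controls on 0–100 scale (0 no effect, 100 complete control); dash means no result.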

[2] = system: ducksalad (Heteranthera limosa); test: Test D flooded paddy test, ducksalad; format: in vivo; design: key: 0 = no effect, 100 = complete control; conditions: 250 g ai/ha, Flood; applied to paddy water at 2-leaf stage; visual rating after 13 days; scale 0 (no effect) to 100 (complete control)
Method in brief: as §1

[3] = system: horseweed (Erigeron canadensis); test: Test C postemergence, horseweed; format: in vivo
Method in brief: (§2)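 Herbicidal effect was estimated visually on a 0–100 scale 10 or 12 days after spraying. Formulation: non-phytotoxic solvent mixture with surfactant. Timing: directed soil spray after sowing, or postemergence on seedlings bearing one or two leaves.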

[4] = system: wheat (Triticum aestivum); test: Test C postemergence, wheat; format: in vivo
Method in brief: as §2

soybean (Glycine max) [5] = test: Test C preemergence, soybean; format: in vivo; conditions: 0 is no effect, 100 is complete control
Method in brief: as §2

[6] = system: pigweed, palmer (palmer amaranth, Amaranthus palmeri); test: Test C postemergence, palmer amaranth; format: in vivo
Method in brief: as §2

[7] = system: sedge, umbrella (small-flower umbrella sedge, Cyperus difformis); test: Test D flooded paddy test, umbrella sedge; format: in vivo; design: key: 0 = no effect, 100 = complete control; conditions: 250 g ai/ha, Flood; applied to paddy water at 2-leaf stage; visual rating after 13 days; scale 0 (no effect) to 100 (complete control)
Method in brief: as §1

[8] = system: foxtail, giant (giant foxtail, Setaria faberi); test: Test C preemergence, giant foxtail; format: in vivo; conditions: 0 is no effect, 100 is complete control
Method in brief: as §2

[9] = system: pigweed, palmer (palmer amaranth, Amaranthus palmeri); test: Test C preemergence, palmer amaranth; format: in vivo; conditions: 0 is no effect, 100 is complete control
Method in brief: as §2

[10] = system: blackgrass (Alopecurus myosuroides); test: Test C postemergence, blackgrass; format: in vivo; conditions: 125 g ai/ha Postemergence; 0 is no effect, 100 is complete control
[11] = system: ryegrass, Italian (Italian ryegrass, Lolium multiflorum); test: Test C preemergence, Italian ryegrass; format: in vivo; conditions: 0 is no effect, 100 is complete control
Method in brief: as §2

kochia (Bassia scoparia) [12] = test: Test C postemergence, kochia; format: in vivo
Method in brief: as §2

corn (Zea mays) [13] = test: Test C postemergence, corn; format: in vivo
soybean (Glycine max) [14] = test: Test C postemergence, soybean; format: in vivo
[15] = system: foxtail, giant (giant foxtail, Setaria faberi); test: Test C postemergence, giant foxtail; format: in vivo
rice (Oryza sativa) = test: Test D flooded paddy test, rice; format: in vivo; design: key: 0 = no effect, 100 = complete control; conditions: 250 g ai/ha, Flood; applied to paddy water at 2-leaf stage; visual rating after 13 days; scale 0 (no effect) to 100 (complete control)
Method in brief: as §1

corn (Zea mays) [16] = test: Test C preemergence, corn; format: in vivo; conditions: 0 is no effect, 100 is complete control
Method in brief: (§3)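 Pre: soil sprayed at seeding. Post: seedlings treated at 1–2 leaves (2–10 cm). Vehicle non-phytotoxic solvent mix with surfactant; loam–sand medium; greenhouse; visual injury read at 10 or 12 days, scale 0–100.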

[17] = system: goosegrass (Eleusine indica); test: Test C preemergence, goosegrass; format: in vivo; conditions: 0 is no effect, 100 is complete control
Method in brief: as §3

[18] = system: oat, wild (wild oat, Avena fatua); test: Test C postemergence, wild oat; format: in vivo
[19] = system: wheat (Triticum aestivum); test: Test C preemergence, wheat; format: in vivo; conditions: 0 is no effect, 100 is complete control
[20] = system: oat, wild (wild oat, Avena fatua); test: Test C preemergence, wild oat; format: in vivo; conditions: 0 is no effect, 100 is complete control
Method in brief: as §2

kochia (Bassia scoparia) [21] = test: Test C preemergence, kochia; format: in vivo; conditions: 0 is no effect, 100 is complete control
Method in brief: as §2

[22] = system: ragweed (common ragweed, Ambrosia artemisiifolia); test: Test C postemergence, ragweed; format: in vivo
Method in brief: as §2

[23] = system: galium (catchweed bedstraw, Galium aparine); test: Test C postemergence, galium; format: in vivo
[24] = system: blackgrass (Alopecurus myosuroides); test: Test C preemergence, blackgrass; format: in vivo; conditions: 0 is no effect, 100 is complete control
Method in brief: as §2

[25] = system: blackgrass (Alopecurus myosuroides); test: Test C postemergence, blackgrass; format: in vivo; conditions: 31 g ai/ha Postemergence; visual injury, 0 to 100 scale (0 no effect, 100 complete control)
Method in brief: as §2

[26] = system: ragweed (common ragweed, Ambrosia artemisiifolia); test: Test C preemergence, ragweed; format: in vivo; conditions: 0 is no effect, 100 is complete control
Method in brief: as §3

[27] = system: ryegrass, Italian (Italian ryegrass, Lolium multiflorum); test: Test C postemergence, Italian ryegrass; format: in vivo
Method in brief: as §2

[28] = system: goosegrass (Eleusine indica); test: Test C postemergence, goosegrass; format: in vivo
Method in brief: as §2

[29] = 31 g ai/ha Postemergence, visual injury, 0 to 100 scale (0 no effect, 100 complete control)
[30] = 125 g ai/ha Postemergence, 0 is no effect, 100 is complete control

C#CCO/N=C1\CCN(c2cc(NS(=O)(=O)C(F)(F)F)c(C)cc2C)C1=O [Compound 13, N-[2,4-dimethyl-5-[2-oxo-3-[(2-propyn-1-yloxy)imino]-1-pyrrolidinyl]phenyl]-1,1,1-trifluoromethanesulfonamide]
90: Plant response rating (0 to 100 scale), Horseweed [3, 30] | Wheat plant response rating [4, 29] | Plant response rating (0 to 100 scale), Wheat [4, 30] | Plant response rating (0 to 100 scale), Pigweed, Palmer [6, 30] | Plant response rating (0 to 100 scale), Blackgrass [10] | Kochia plant response rating (kochia (Bassia scoparia) [12]; [29]) | Plant response rating (0 to 100 scale), Kochia (kochia (Bassia scoparia) [12]; [30]) | Plant response rating (0 to 100 scale), Foxtail, Giant [15, 30] | Plant response rating (0 to 100 scale), Goosegrass ([17]; 31 g ai/ha Preemergence) | Oat, Wild plant response rating [18, 29] | Plant response rating (0 to 100 scale), Oat, Wild [18, 30] | Plant response rating (0 to 100 scale), Wheat ([19]; 31 g ai/ha Preemergence) | Plant response rating (0 to 100 scale), Ragweed [22, 30] | Plant response rating (0 to 100 scale), Blackgrass ([24]; 31 g ai/ha Preemergence)
100: Plant response rating, Ducksalad [2] | Plant response rating (0 to 100 scale), Soybean (soybean (Glycine max) [5]; 125 g ai/ha Preemergence) | Plant response rating, Sedge, Umbrella [7] | Plant response rating (0 to 100 scale), Foxtail, Giant ([8]; 31 g ai/ha Preemergence) | Plant response rating (0 to 100 scale), Foxtail, Giant ([8]; 125 g ai/ha Preemergence) | Plant response rating (0 to 100 scale), Pigweed, Palmer ([9]; 31 g ai/ha Preemergence) | Plant response rating (0 to 100 scale), Pigweed, Palmer ([9]; 125 g ai/ha Preemergence) | Plant response rating (0 to 100 scale), Ryegrass, Italian ([11]; 125 g ai/ha Preemergence) | Corn plant response rating (corn (Zea mays) [13]; [29]) | Plant response rating (0 to 100 scale), Corn (corn (Zea mays) [13]; [30]) | Soybean plant response rating (soybean (Glycine max) [14]; [29]) | Plant response rating (0 to 100 scale), Soybean (soybean (Glycine max) [14]; [30]) | Plant response rating (0 to 100 scale), Corn (corn (Zea mays) [16]; 125 g ai/ha Preemergence) | Plant response rating (0 to 100 scale), Goosegrass ([17]; 125 g ai/ha Preemergence) | Plant response rating (0 to 100 scale), Wheat ([19]; 125 g ai/ha Preemergence) | Plant response rating (0 to 100 scale), Oat, Wild ([20]; 31 g ai/ha Preemergence) | Plant response rating (0 to 100 scale), Oat, Wild ([20]; 125 g ai/ha Preemergence) | Plant response rating (0 to 100 scale), Kochia (kochia (Bassia scoparia) [21]; 31 g ai/ha Preemergence) | Plant response rating (0 to 100 scale), Kochia (kochia (Bassia scoparia) [21]; 125 g ai/ha Preemergence) | Galium plant response rating [23, 29] | Plant response rating (0 to 100 scale), Galium [23, 30] | Plant response rating (0 to 100 scale), Blackgrass ([24]; 125 g ai/ha Preemergence) | Plant response rating (0 to 100 scale), Ragweed ([26]; 125 g ai/ha Preemergence) | Plant response rating (0 to 100 scale), Goosegrass [28, 30]
175 to 178 °C: melting point
60: Foxtail, Giant plant response rating [15, 29] | Ryegrass, Italian plant response rating [27, 29] | Plant response rating (0 to 100 scale), Ryegrass, Italian [27, 30]
40: Plant response rating (0 to 100 scale), Ryegrass, Italian ([11]; 31 g ai/ha Preemergence) | Plant response rating (0 to 100 scale), Corn (corn (Zea mays) [16]; 31 g ai/ha Preemergence)
10: Plant response rating, Barnyardgrass [1]
35: Plant response rating, Rice (rice (Oryza sativa))
80: Plant response rating (0 to 100 scale), Soybean (soybean (Glycine max) [5]; 31 g ai/ha Preemergence) | Pigweed, Palmer plant response rating [6, 29] | Ragweed plant response rating [22, 29] | Blackgrass plant response rating [25]
50: Plant response rating (0 to 100 scale), Ragweed ([26]; 31 g ai/ha Preemergence)
70: Horseweed plant response rating [3, 29] | Goosegrass plant response rating [28, 29]
